Patent US20260258009A1, “3-[(BENZO[D][1,3]DIOXOLANE-4-YL)OXY]PROPYLAMINE HYDROCHLORIDE, OPTICAL ISOMER AND CRYSTAL THEREOF, AND PREPARATION METHOD THEREFOR” (priority 2022, published 2026)
Like-named read-outs stand apart in the source and are kept apart here.

Assays:
ICR mice [1] = experiment: Mouse forced swimming test; type: in vivo; settings: intragastric; for Immobility time: mice, 1 h after administration, mean±SD, n=12; for minimum effective dose (MED) / ED50: mouse forced swimming; for ED50: po, read-out: ED50 (median effective dose, FST-ED50)
Description: SPF grade ICR mice were taken. The animals were grouped by weight, 12 animals per group, and the animals were allowed to acclimate for at least 3 days before behavioural test.
The behavioural test was started 1 h after intragastric administration. The mice were placed in a transparent glass cylinder with water (water depth: 15 cm, water temperature: 23-25° C.) and video recorded for 6 min (the background was an LED light panel). At the end of the time, the mice were removed from the water and the next batch of mice was subjected to the behavioural test. Water was changed after every 3 batches of tests. After the test, the video of the behavioural test was derived and the cumulative immobility time of the mice 4 min after the 6 min forced swimming period was analyzed using the Forced Swim Scant 2.0 software.
The test results are expressed as mean±SD. Comparisons between each group and the vehicle group were conducted using the t-test. The differences were considered statistically significant when. P<0.05.

in vivo [2] = settings: both sexes, ICR, mouse, in vivo, po
Description: (§1) The dose administered at the time of the formal test was determined based on the dose of the compound in the preliminary experiment that caused 100% and 0% death in mice. In the formal test, ICR mice were taken and randomly grouped, with 10 mice in each group, half male and half female, which were subjected to intragastric administration at 10 mL/kg.
(§2) From the results of the mouse acute toxicity test, the compound of formula (I) is least toxic. The therapeutic index (TI=LD50/ED50) was calculated based on the results of the mouse acute toxicity and efficacy test.

ICR mice [3] = experiment: in vivo; settings: mouse acute toxicity LD50 / forced swimming ED50
Description: as §1, §2

[4] = Solubility experiment (HPLC, external standard method); type: physicochemical; settings: 20 °C, water, thermodynamic from solid
Description: The concentrated solution was placed in a 20° C. water bath thermostatic oscillator for overnight oscillation (supersaturation) and filtered. The filtrate was taken, 1 mL of which was precisely measured and placed in a 100 mL volumetric flask. A diluent (water) was added, the mixture was diluted to volume and mixed well, 1 mL of which was precisely measured and placed in a 10 mL volumetric flask. A diluent was added, the mixture was diluted to volume and mixed well as a test sample solution.
Control substance solution: A proper amount of 5 samples were respectively taken, precisely measured, dissolved in a proper amount of a diluent by ultrasonication, and diluted to give a solution containing about 0.1 mg of the sample per 1 mL. Two duplicate samples were prepared for each batch.
• (1) Preparation of buffer: About 2.6428 g ammonium sulfate was weighed and dissolved in 1000 mL of water. 2 mL of triethylamine was added, and the pH value was adjusted to 4.0 with dilute sulfuric acid. • (2) Preparation of mobile phase: Methanol-0.02 mol/L ammonium sulfate solution (2 mL triethylamine was added per 1000 mL, and the pH value was adjusted to 4.0 with dilute sulfuric acid) (45:55). 1000 mL was prepared, mixed well, filtered, and used after ultrasonic treatment.
Detection wavelength: 230 nm; flow rate: 1.0 mL/min; column temperature: 35° C.; sample injection volume: 20 μL; chromatographic column: Agilent Eclipse XDB-C18 chromatographic column (4.6×150 mm, 5 μm); mobile phase: methanol-0.02 mol/L ammonium sulfate solution (2 mL triethylamine was added per 1000 mL, and the pH value was adjusted to 4.0 with dilute sulfuric acid) (45:55).
20 μL of each solution was precisely measured, and injected separately into a liquid chromatograph. The chromatograms were recorded, and the solubility of the compounds was determined according to an external standard method.

in vivo [5] = settings: both, beagle, dog; for half-life: t1/2
Description: Each group had six beagle dogs, half male and half female.
Preparation of solutions: • 1) Intravenous injection administration: 0.9% Normal saline was used as a vehicle. • 2) Oral administration: According to the dose of 10 mg/kg (based on base), a corresponding mass of the drug was weighed according to the actual weight of the animal, and then filled into a capsule to be administered to the animal.

[6] = 95% confidence interval of LD50
[7] = Mouse acute toxicity LD50 (median lethal dose)

Row | SMILES | Immobility time (ICR mice [1]; 0.2 mg/kg) [s] | Immobility time (ICR mice [1]; 0.4 mg/kg) [s] | Immobility time (ICR mice [1]; 0.8 mg/kg) [s] | Immobility time (ICR mice [1]; 1.6 mg/kg) [s] | Immobility time (ICR mice [1]; 15 mg/kg) [s] | Immobility time (ICR mice [1]; 30 mg/kg) [s] | minimum effective dose (MED) (ICR mice [1]) [mg/kg] | ED50 (ICR mice [1]) [mg/kg] | LD50 at 7 days (in vivo [2]; [6]) [mg/kg] | LD50 at 7 days (in vivo [2]; [7]) [mg/kg] | TI = LD50/ED50 (therapeutic index) (ICR mice [3]) | further results
1 | CNCC[C@H](Oc1cccc2c1OCO2)c1ccccc1.Cl [(S)—N-methyl-3-phenyl-3-[(benzo[d][1,3]dioxolan-4-yl)oxy]propylamine hydrochloride] | 180.4 ± 29.4 | 167.5 ± 45.7 | 147.0 ± 65.4 | 94.1 ± 35.4 | 8.9 ± 8.7 | 6.2 ± 9.7 | 1.6 | 1.74 | 13.1 to 91.3 | 66.8 | 38.4 | –
2 | CNCC[C@@H](Oc1cccc2c1OCO2)c1ccccc1.Cl [Compound of formula I, (R)—N-methyl-3-phenyl-3-[(benzo[d][1,3]dioxolan-4-yl)oxy]propylamine hydrochloride] | 178.6 ± 17.0 | 105.0 ± 72.1 | 106.0 ± 59.7 | 55.4 ± 41.1 | 13.0 ± 23.3 | 7.6 ± 4.4 | 0.4 | 0.96 | 106 to 125 | 116 | 120.4 | solubility ([4]; Solubility): 33.2 mg/mL; AUC(0-t) (in vivo [5]; iv, 0.3 mg/kg): 117 ng·h/mL; AUC(0-inf) (in vivo [5]; iv, 0.3 mg/kg): 119 ng·h/mL; Cmax (in vivo [5]; iv, 0.3 mg/kg): 80.4 ng/mL; Tmax (in vivo [5]; iv, 0.3 mg/kg): 0.08 h; half-life (in vivo [5]; iv, 0.3 mg/kg): 2.15 h; AUC(0-t) (in vivo [5]; po, 1 mg/kg): 100 ng·h/mL; AUC(0-inf) (in vivo [5]; po, 1 mg/kg): 102 ng·h/mL; Cmax (in vivo [5]; po, 1 mg/kg): 28.9 ng/mL; Tmax (in vivo [5]; po, 1 mg/kg): 1.23 h; half-life (in vivo [5]; po, 1 mg/kg): 2.36 h; bioavailability (in vivo [5]; po, Bioavailability): 25.7%
3 | CNCCC(Oc1cccc2c1OCO2)c1ccccc1.Cl (stereo not shown) [N-methyl-3-phenyl-3-[(benzo[d][1,3]dioxolan-4-yl)oxy]propylamine hydrochloride] | 165.3 ± 37.2 | 125.6 ± 53.6 | 86.9 ± 53.4 | 83.2 ± 52.9 | 64.3 ± 73.7 | 3.7 ± 5.9 | 0.4 | 1.81 | – | – | 62.0 | solubility ([4]; Water, 20° C., overnight oscillation, read-out: Solubility): 1500 mg/mL; LD50 at 7 days (in vivo [2]; mice, single intragastric administration, observed within 7 days, read-out: Mouse acute toxicity LD50 (median lethal dose)): 112 mg/kg; LD50 at 7 days (in vivo [2]; mice, single intragastric administration, read-out: 95% confidence interval of LD50): 102 to 122 mg/kg
